# Measured values as given in patent publication US20100184186A1, “NOVEL RIGIDOPORUS MICROPORUS LACCASE” (Academia Sinica, priority 2009, published 2010).
# B1: Lcc35: novel laccase isolated from R. microporus BCRC 35318; mature form SEQ ID NO:1, precursor SEQ ID NO:2 (protein)
# chain: SVGPVADIPIVNANLSPDGFTRTTVLAGGTFPGPLIVGNKGDNFKLNVVDQLTDANQLKTTTIHWHGFFQHGTNWADGPAFVNQCPIASGNSFLYDFSAADQAGTFWYHSHLSTQYCDGLRGAFVVYDPSDPNASLYDVDNESTVITLADWYHTLARLGARFPTPDSTLINGLGRFAGGPASDLSVITVESGKRYRFRLVSISCDPNYTFSIDGHDMTIIEVNGINHDALSVDSIQIFAGQRYSFVLNANQAVGNYWIRANPNIGTRGFSGGINSAILRYVGADAVEPTTSQGTSTKPLVETNLHPSQNPGAVGSPTPGGVDLALNLALGFAGGSFTINGATFTSPTVPVLLQILSGAQSATDLLPSGSVFTLPGDSTIEISMPAGVAGGPHPFHLHGHAFDVVRASGSSTYNYANPVRRDVVSLGAAGDNVTIRFKTDNPGPWFLHCHIDWHLEAGLAIVFAEDTPNTAAINPVPQAWSDLCPIYNALAESDH
# modifications: RIGIDOPORUS MICROPORUS
# How the values were obtained:
# Lcc35 = assay: Inhibitor effects on Lcc35 laccase activity; format: biochemical, R. microporus BCRC 35318; details: ABTS substrate; for Relative activity (%) of Lcc35: pre-incubation pH 5.0, 30° C., 10 min
# Protocol: The inhibitory effects of NaN3, ethylenediaminetetraacetic acid (EDTA), dithiothreitol (DTT), and L-Cysteine on Lcc35 were examined as follows. Lcc35 was pre-incubated in a solution (pH 5.0) containing one of the test compounds at 30° C. for 10 min. The laccase activity was then examined using ABTS as the substrate.
# R. microporus BCRC 35318 = assay: Effects of inducers on laccase production in R. microporus; format: cell-based; details: for Yield of laccase production: inducer 1 mM in basal medium
# Protocol: (§1) To isolate the laccase from R. microporus BCRC 35318, eight-day-old mycelial disks (8 mm in diameter) collected from the PDA plate mentioned above were inoculated into a basal medium containing (per liter) 10 g glucose, 0.22 g ammonium tartrate, 0.9 g K2HPO4, 0.1 g KH2PO4, 0.05 g MgSO4.7H2O, 0.5 g CaCl2, 0.01 g Thiamine HCl, and 10 ml solution (0.08 g CuSO4.5H2O, 0.07 g MnSO4.4H2O, 4.3 g ZnSO4.7H2O and 0.05 g FeSO4.7H2O per liter). The pH of the medium was adjusted to 5.5. After being cultured for 10 days at 30° C. in a rotary shaker with a speed setting of 125 rpm, the supernatant of the fungal culture thus obtained was collected and passed through a […] filter (Nalgene) to remove fungal cells. The filtrate was mixed with 100% ammonium sulfate for protein precipitation. The precipitated proteins were dissolved in 40 ml of a 10 mM sodium acetate buffer (pH 6.0) and the resultant solution was dialyzed against the same acetate buffer overnight to remove co-precipitated ammonium sulfate and then concentrated to 4 ml by ultracentrifugal filteration with a molecular cutoff of 10 kDa (Amicon).
# R. microporus BCRC 35318 cells were cultured in the basal medium described in Example 1 above, which was supplemented with veratryl alcohol, 4-hydroxybenxoic acid, ferulic acid, or rice straw powder. Lcc35 were isolated from the culture supernatants following the method also described above and its activity was determined.
# [1] = system: Rigidoporus microporus BCRC 35318 laccase Lcc35, native (wild type), mature form SEQ ID NO:1; assay: Kinetic constants of Lcc35 for digesting ABTS and SGZ (initial reaction rates at various substrate concentrations); format: biochemical, R. microporus BCRC 35318
# Protocol: The pH of the medium was adjusted to 5.5. After being cultured for 10 days at 30° C. in a rotary shaker with a speed setting of 125 rpm, the supernatant of the fungal culture thus obtained was collected and passed through a […] filter (Nalgene) to remove fungal cells. […] The precipitated proteins were dissolved in 40 ml of a 10 mM sodium acetate buffer (pH 6.0) and the resultant solution was dialyzed against the same acetate buffer overnight to remove co-precipitated ammonium sulfate and then concentrated to 4 ml by ultracentrifugal filteration with a molecular cutoff of 10 kDa (Amicon). Next, the laccase activities of Lcc35 under various pH conditions were determined, following the method described in Lu et al., Appl. Microbiol. […] After being incubated at 30° C. for 1 min (when ABST or SGZ was the substrate) or for 4 hours (when RBBR was the substrate), each of the reaction mixtures was examined with a spectrophotometer to determine its optical density at 420 nm (when ABST was the substrate), at 530 nm (when SGZ was the substrate), or at 585 nm (when RBBR was the substrate). […] Kinetic constants of Lcc35 for digesting ABTS and SGZ were determined based on the initial reaction rates of Lcc35 at various substrate concentrations. The enzymatic reactions were taken place at pH 5 (for ABST) or pH 6 (for SGH) and 70° C.
# [2] = system: Rigidoporus microporus BCRC 35318 laccase Lcc35, native (wild type), mature form SEQ ID NO:1; assay: Inhibitor effects on Lcc35 laccase activity (ABTS as the substrate); format: biochemical, R. microporus BCRC 35318; details: 10 min; for Relative activity (residual laccase activity with inhibitor; None = 100.0): pre-incubated pH 5.0, 30° C.
# Protocol: as §1
# Next, the laccase activities of Lcc35 under various pH conditions were determined, following the method described in Lu et al., Appl. Microbiol. Biotechnol., 2007, 74, (6), 1232-1239. 0.01 ml of the Lcc35-containing solution was mixed with (i) 0.49 ml of a 50 mM reaction buffer of glycine-HCl (pH 2.0 to 3.0), sodium acetate (pH 4.0 to 6.0), or sodium phosphate (pH 7.0 to 8.0) and (ii) 0.5 ml of a substrate solution containing 2 mM ABTS, 1 mM [N,N′-bis(3,5-dimethoxy-4-hydroxybenzylidene)hydrazine] (SGZ), or 0.04% RBBR. After being incubated at 30° C. for 1 min (when ABST or SGZ was the substrate) or for 4 hours (when RBBR was the substrate), each of the reaction mixtures was examined with a spectrophotometer to determine its optical density at 420 nm (when ABST was the substrate), at 530 nm (when SGZ was the substrate), or at 585 nm (when RBBR was the substrate). One unit of laccase activity was defined as the amount of Lcc35 that oxidized 1 μmol substrate per min. […]
# [3] = ABTS overlay activity assay on basic-native PAGE gel; format: biochemical; details: ABTS reaction buffer 1 mM, pH 3, room temperature
# Protocol: The laccase activity of this 55kDa protein was determined by an [2,2-azinobis(3-ethylbenzathiazoline-6-sulfonic acid)] (ABTS) overlay activity assay. See Lebendiker M BASIC-NATIVE GEL Protocol, wolfson.huji.ac.il/purification/Protocols/PAGE_Basic.html. A basic-native PAGE gel containing the 55 kDa protein was incubated in an ABTS reaction buffer (1 mM, pH 3) at room temperature.
# [4] = Isoelectric focusing with PhastGel IEF 3-9; format: physicochemical
# Protocol: First, the isoelectric focusing point of Lcc35 was determined with PhastGel IEF 3-9 (GE Healthcare), following the method described in Hackler et al., Anal. Biochem. 1995, 230, (2), 281-289. Briefly, the Lcc35-containing solution mentioned above was loaded on a PhastGel IEF 3-9 gel.
# [5] = Laccase activity under various pH conditions, ABTS substrate; format: biochemical; details: 30° C., 1 min
# Protocol: (§2) Next, the laccase activities of Lcc35 under various pH conditions were determined, following the method described in Lu et al., Appl. Microbiol. Biotechnol., 2007, 74, (6), 1232-1239. 0.01 ml of the Lcc35-containing solution was mixed with (i) 0.49 ml of a 50 mM reaction buffer of glycine-HCl (pH 2.0 to 3.0), sodium acetate (pH 4.0 to 6.0), or sodium phosphate (pH 7.0 to 8.0) and (ii) 0.5 ml of a substrate solution containing 2 mM ABTS, 1 mM [N,N′-bis(3,5-dimethoxy-4-hydroxybenzylidene)hydrazine] (SGZ), or 0.04% RBBR. After being incubated at 30° C. for 1 min (when ABST or SGZ was the substrate) or for 4 hours (when RBBR was the substrate), each of the reaction mixtures was examined with a spectrophotometer to determine its optical density at 420 nm (when ABST was the substrate), at 530 nm (when SGZ was the substrate), or at 585 nm (when RBBR was the substrate). One unit of laccase activity was defined as the amount of Lcc35 that oxidized 1 μmol substrate per min.
# [6] = Laccase activity under various pH conditions, SGZ substrate; format: biochemical; details: 30° C., 1 min
# Protocol: as §2
# [7] = Laccase activity under various pH conditions, RBBR de-colorization; format: biochemical; details: RBBR substrate, 30° C., 4 hours
# Protocol: as §2
# [8] = Optimal pH with artificial lignin on agar micro-titer plate; format: biochemical; details: 0.1% lignin substrate, 30° C., 4 hr
# Protocol: The optimal pH of Lcc35 was also examined using an artificial lignin as a substrate, as follows. Each of the reaction buffers listed above was mixed with 0.1% lignin (Sigma #471003) and the mixture was placed in wells of an agar micro-titter plate. 10 μl of the Lcc35-containing suspension was placed at the center of each well. The agar plate was incubated at 30° C. for 4 hr to allow degradation of the artificial lignin by Lcc35.
# pH stability of Lcc35 = format: physicochemical; details: incubated at 30° C. for 20 hours, ABTS substrate
# Protocol: The Lcc35 solution was incubated under various pH conditions at 30° C. 20 hours later, the laccase activity in the solution was determined, using ABST as the substrate.
# [9] = Laccase activity at various temperatures; format: biochemical; details: ABTS substrate, sodium acetate buffer pH 5.0, 1 minute, 25-90° C.
# Protocol: The laccase activity of Lcc35 was determined at various temperatures (i.e., ranging from 25-90° C.), using ABST as the substrate. The Lcc35-containing solution was incubated with ABST and a sodium acetate buffer (pH 5.0) for 1 minute and the enzymatic activity was examined afterwards.
# [10] = Thermal stability of Lcc35; format: physicochemical; details: pH 6.0, 30-70° C. for 10, 30 or 60 minutes
# Protocol: To determine thermal stability of Lcc35, the enzyme solution was incubated under pH 6.0 at various temperatures (i.e., 30° C., 40° C., 50° C., 60° C., and 70° C.) for 10, 30, or 60 minutes.
# [11] = Activity comparison with T. versicolor laccase, ABTS assay; format: biochemical
# Protocol: as §2
# (§3) The laccase activity of Lcc35 was compared with Trametes versicolor laccase (provided by Fluka Co.), using either ABST or SGZ as the substrate according to the methods described above.
# [12] = Activity comparison with T. versicolor laccase, SGZ assay; format: biochemical; details: SGZ substrate; laccase amount by SDS-PAGE and ImageQuant TL 7.0
# Protocol: as §2, §3
# [13] = Enzymatic activity of purified Lcc35; format: biochemical; details: isolated as in Example 1; culture with 1 mM 4-hydroxybenzoic acid
# Protocol: as §1
# See Cambria et al., Protein Expr. Purif. 2000, 18, (2), 141-147; and Liu et al., Appl. Microbiol. Biotechnol. 2003, 63, (2), 174-181. Following the isolation process described in Example 1 above, purified Lcc35 was obtained with a recovery rate of about 55% and an enzymatic activity of 289.8 U/ml.
# [14] = substrate ABTS, pH 5, 70° C., 420 nm
# [15] = substrate SGZ, pH 6, 70° C., 530 nm
molecule,measurement,setting,value
"O[C@H](CS)[C@H](O)CS (racemic) [DTT, dithiothreitol]",Relative activity (%) of Lcc35,Lcc35; compound 0.1 mM,92.3%
same,Relative activity (%) of Lcc35,Lcc35; compound 1.0 mM,91.8%
"O=C(O)c1ccc(O)cc1 [4-Hydroxybenzoic acid, 4-hydroxybenzoic acid]",Yield of laccase production,R. microporus BCRC 35318,10.5 Unit ml^−1
same,increase of Lcc35 production,R. microporus BCRC 35318; versus no inducer,10.5 fold
"CCn1c(=NN=c2sc3cc(S(=O)(=O)O)ccc3n2CC)sc2cc(S(=O)(=O)O)ccc21 [ABTS, 2,2-azinobis(3-ethylbenzathiazoline-6-sulfonic acid)]",Kcat,[1]; [14],730 s⁻¹
same,Km,[1]; [14],53 µM
"O=C(O)CN(CCN(CC(=O)O)CC(=O)O)CC(=O)O [EDTA, ethylenediaminetetraacetic acid]",Relative activity (%) of Lcc35,Lcc35; compound 10.0 mM,100.0%
same,Relative activity (%) of Lcc35,Lcc35; compound 25.0 mM,100.0%
"COc1cc(/C=C/C(=O)O)ccc1O [Ferulic acid, ferulic acid]",Yield of laccase production,R. microporus BCRC 35318,2.4 Unit ml^−1
N[C@@H](CS)C(=O)O [L-Cysteine],Relative activity (%) of Lcc35,Lcc35; compound 0.1 mM,97.2%
same,Relative activity (%) of Lcc35,Lcc35; compound 1.0 mM,92.7%
[N-]=[N+]=[N-].[Na+] [NaN3],Relative activity (residual laccase activity with inhibitor; None = 100.0),[2]; 0.1 mM compound,50.0%
same,Relative activity (residual laccase activity with inhibitor; None = 100.0),[2]; 1.0 mM compound,17.0%
same,inhibitory effect on Lcc35 (in words),"[2]; concentrations of Table 2, pH 5.0, 30° C.",substantially inhibited
same,inhibitory effect on Lcc35 activity (in words),Lcc35,substantially inhibited
same,Relative activity (%) of Lcc35,Lcc35; compound 0.1 mM,50.0%
same,Relative activity (%) of Lcc35,Lcc35; compound 1.0 mM,17.0%
"COc1cc(/C=N/N=C/c2cc(OC)c(O)c(OC)c2)cc(OC)c1O [SGZ, N,N′-bis(3,5-dimethoxy-4-hydroxybenzylidene)hydrazine]",Kcat,[1]; [15],750 s⁻¹
same,Km,[1]; [15],7 µM
"COc1ccc(CO)cc1OC [Veratryl alcohol, veratryl alcohol]",Yield of laccase production,R. microporus BCRC 35318,3.4 Unit ml^−1
B1,laccase activity (color change around the 55 kDa band),[3],high laccase activity
same,pI value,[4],3.98
same,pH of highest laccase activity,[5],3-5
same,pH of highest laccase activity,[6],5-6
same,pH of highest laccase activity,[7],5-6
same,pH of highest laccase activity,[8],5-6
same,pH at which Lcc35 was more stable,pH stability of Lcc35,6
same,temperature of highest laccase activity,[9],70 °C
same,temperature below which Lcc35 was stable,[10],below 50 °C
same,laccase-specific activity relative to T. versicolor laccase,[11]; ABTS or SGZ as the substrate,2-3 fold
same,"ABTS assay, laccase-specific activity","[11]; ABTS substrate, laccase amount by SDS-PAGE and ImageQuant TL 7.0",3800 U mg^−1
same,"SGZ assay, laccase-specific activity",[12],1700 U mg^−1
same,enzymatic activity of purified Lcc35,[13],289.8 U/ml
